Measured values from US20080070898A1, “Piperidine Derivative or Pharmaceutically Acceptable Salt Thereof” (priority 2004, published 2008).
Structures can show the parent of a compound that is named as a salt.

Tests used:
sodium channel = assay: [14C] guanidine uptake test (sodium channel inhibition test), veratridine-induced uptake into rat cerebral cortex primary neurons; type: cell-based; conditions: 100 μM veratridine, 25° C., 15 minutes, specific uptake defined by 1 mM mexiletine
Method: (Sodium Channel Inhibition Test)
The [^14C] guanidine uptake test was conducted by modifying the method of Bonisch et al. (British Journal of Pharmacology 108, 436-442, 1993). The [^14C] guanidine was used as a sodium tracer, and the inhibitory activity on uptake of [^14C] guanidine induced by veratridine as a sodium channel activator into rat cerebral cortex primary neurons was measured.
a. Preparation of Rat Cerebral Cortex Primary Neuron Culture System.
A pregnant rat (Wistar, female, pregnancy=19 days old) was anesthetized with diethyl ether and killed by bleeding with the cutting of the carotid artery. Fetuses were excised from the pregnant rat and sterilized with ethanol for disinfection. Then, from the fetuses was dissociated the cerebral cortex. The cerebral cortex was digested with papain and dispersed in a culture medium. Then, the dissociated neurons were placed in a 96-well white plate coated with a poly-L-lysine, at a density of […], and cultured for 2 days in a CO2 incubator (37° C., 5% CO2)
b. Evaluation of Test Compounds
Each well was washed once with an assay buffer (135 mM choline Cl, 5 mM KCl, 1 mM MgSO4, 5.5 mM glucose, 1 mg/mL BSA, 10 mM Hepes-Tris, pH 7.4). The assay buffer was added to each well and incubated at 25° C. for 10 minutes. Then, the assay buffer was replaced by a reaction solution (test compound, [^14C] guanidine and 100 μM veratridine) and incubated at 25° C. for 15 minutes. The reaction was terminated by three times washing with a cold-washing buffer (135 mM NaCl, 5 mM KCl, 1 mM MgSO4, 10 mM Hepes-Tris, pH 7.4). To each well was added 17 μL of 0.1 N NaOH; stirring was made; then, 100 μL of a scintillator was added; and the radioactivity of each well was measured using a liquid scintillator counter. In each test, the uptake amount of [^14C] guanidine inhibited by 1 mM of mexiletine was taken as the portion of the specific uptake via sodium channel. The activity of test compound on sodium channel is expressed by 50% inhibitory concentration (IC50) for the specific uptake.

[1] = tested on: streptozotocin (STZ)-induced diabetic mice; assay: Analgesic action on diabetic neuropathy in streptozotocin-induced diabetic mice (tail pinch test); type: in vivo; conditions: orally 30 mg/kg, 45 minutes prior to measurement, Day 15 after STZ injection, ICR mice
Method: (Analgesic Action on Diabetic Neuropathy in Streptozotocin-Induced Diabetic Mice)
Representative compounds of Compound (I) of the present invention were assessed for the analgesic action on diabetic neuropathy in streptozotocin (STZ)-induced diabetic mice to confirm the effect on neuropathic pain. The assessment was performed by the method of Kamei et al. (Pharmacology Biochemistry & Behavior 39, 541-544, 1991) with some modifications.
Male ICR mice of 4 weeks old were intraperitoneally injected with 200 mg/kg weight of STZ to prepare mice with diabetic neuropathy. The analgesic action was assessed by the tail pinch test. […] On Day 14 following the STZ injection, a pretest was carried out to determine the response latency before the administration of a test compound. Only the animals showing not longer than 3 seconds of the response latency in the pretest were used for the test compound assessment on the following day (Day 15 after STZ injection). In the test compound assessment, the response latency after the administration of a test compound was measured. The test compound was orally administered at a dose of 30 mg/kg, 45 minutes prior to the response latency measurement. The analgesic action of a test compound is expressed as prolongation of latency (in seconds) calculated by the formula: (response latency after administration of a test compound)−(response latency before administration of a test compound).

[2] = tested on: L5/L6 spinal nerve ligation rats; assay: animal or person; conditions: Rattus norvegicus, po, read-out: ED50 (anti-allodynia action potency)
Method: (Anti-Allodynia Effect in Rats with L5/L6 Spinal Nerve Ligation)
The assessment was performed by the method of Kim and Chung (Pain 50, 355-363, 1992) with some modifications. Under pentobarbital anesthesia, male SD rats of 5 or 6 weeks old were given surgery to ligate both the left L5 and L6 lumbar spinal nerves tightly with silk threads. For the assessment of analgesic action, the von Frey hair test was adopted. That is, the animal's hindpaw was picked with hair and the lowest strength of hair for limb withdrawal response was designated as a response threshold (log gram) to mechanical stimulation. […] On the day before the assessment of a test compound, the response threshold before administration of a test compound was measured. The animals were divided into 4 to 5 groups so that differences in the mean values of response thresholds before administration among the groups and variation within groups become small. In the assessment of a test compound, the response threshold after administration of the test compound was measured. The test compound was orally given 30 minutes before measurement of the response threshold. The anti-allodynia action potency of a test compound is expressed as ED50. In the calculation of the ED50, the thresholds of ipsilateral and contralateral paws in the solvent group were designated as 0% and 100%, respectively.

SMILES | IC50 (sodium channel) | Increase in latent time (prolongation of latency, tail pinch) [1] | ED50 [2]
O=C(CN1CCOCC1)N1CCC(/C=C/c2ccccc2Cl)CC1 [Example 1, 4-(2-{4-[(E)-2-(2-chlorophenyl)vinyl]piperidin-1-yl}-2-oxoethyl)morpholine oxalate] | 27 µM | – | –
Cc1ccccc1/C=C/C1CCN(C(=O)CN2CCOCC2)CC1 [Example 3, 4-(2-{4-[(E)-2-(2-methylphenyl)vinyl]piperidin-1-yl}-2-oxoethyl)morpholine] | – | 2.3 s | –
O=C(CN1CCOCC1)N1CCC(/C=C/c2ccc(Cl)cc2)CC1 [Example 40, 4-(2-{4-[(E)-2-(4-chlorophenyl)vinyl]piperidin-1-yl}-2-oxoethyl)morpholine] | 23 µM | 3.4 s | –
O=C(CN1CCOCC1)N1CCC(/C=C\c2ccc(Cl)cc2)CC1 [Example 52] | 24 µM | – | –
CC(C)Oc1ccccc1/C=C/C1CCN(C(=O)CN2CCOCC2)CC1 [Example 10] | 16 µM | – | –
Cc1cccc(C)c1OCC(C)N (centres unmarked) [mexiletine, reference compound] | ~70 µM | – | ~70 mg/kg
CN(CC(=O)N1CCC(/C=C/c2ccc(Cl)cc2)CC1)C1CCCCC1 [Example 78, N-2-{4-[(E)-2-(4-chlorophenyl)vinyl]piperidin-1-yl}-2-oxoethyl)-N-methylcyclohexaneamine oxalate] | 3.1 µM | 2.4 s | –
CC(C)c1ccc(/C=C/C2CCN(C(=O)CN3CCOCC3)CC2)cc1 [Example 26, 4-(2-{4-[(E)-2-(4-isopropylphenyl)vinyl]piperidin-1-yl}-2-oxoethyl)morpholine] | 25 µM | 2.3 s | –
O=C(CN1CCCOCC1)N1CCC(/C=C/c2ccc(Cl)cc2)CC1 [Example 65] | 12 µM | – | –
O=C(CN1CCNCC1)N1CCC(/C=C/c2cccc(Cl)c2)CC1 [Example 68, 1-(2-{4-[(E)-2-(3-chlorophenyl)vinyl]piperidin-1-yl}-2-oxoethyl)piperazine di-hydrochloride] | 25 µM | – | –
O=C(C1CCCN1)N1CCC(/C=C/c2ccc(Cl)cc2)CC1 (centres unmarked) [Example 74] | 13 µM | – | –
O=C(CNC1CCCCC1)N1CCC(/C=C/c2ccc(Cl)cc2)CC1 [Example 76, N-2-{4-[(E)-2-(4-chlorophenyl)vinyl]piperidin-1-yl}-2-oxoethyl)cyclohexaneamine oxalate] | 3.4 µM | 3.2 s | –
